smiles,measurement,setting,value
O=C(O)c1cccc(C(=O)O)n1,solubility (mole fraction),"in 1,4-dioxane, 293.15 K",0.00197
same,solubility (mole fraction),"in 1,4-dioxane, 298.15 K",0.00219
same,solubility (mole fraction),"in 1,4-dioxane, 303.15 K",0.0025
same,solubility (mole fraction),"in 1,4-dioxane, 308.15 K",0.00291
same,solubility (mole fraction),"in 1,4-dioxane, 313.15 K",0.00336
same,solubility (mole fraction),"in 1,4-dioxane, 318.15 K",0.00393
same,solubility (mole fraction),"in 1,4-dioxane, 323.15 K",0.00481
same,solubility (mole fraction),"in 1,4-dioxane, 328.15 K",0.00567
same,solubility (mole fraction),"in 1,4-dioxane, 333.15 K",0.00671
same,solubility (mole fraction),"in THF, 278.15 K",0.00256
same,solubility (mole fraction),"in THF, 283.15 K",0.00275
same,solubility (mole fraction),"in THF, 288.15 K",0.00302
same,solubility (mole fraction),"in THF, 293.15 K",0.00338
same,solubility (mole fraction),"in THF, 298.15 K",0.00381
same,solubility (mole fraction),"in THF, 303.15 K",0.00421
same,solubility (mole fraction),"in THF, 308.15 K",0.00462
same,solubility (mole fraction),"in THF, 313.15 K",0.00494
same,solubility (mole fraction),"in THF, 318.15 K",0.00549
same,solubility (mole fraction),"in acetic acid, 293.15 K",0.000799
same,solubility (mole fraction),"in acetic acid, 298.15 K",0.000876
same,solubility (mole fraction),"in acetic acid, 303.15 K",0.000991
same,solubility (mole fraction),"in acetic acid, 308.15 K",0.00116
same,solubility (mole fraction),"in acetic acid, 313.15 K",0.00131
same,solubility (mole fraction),"in acetic acid, 318.15 K",0.00156
same,solubility (mole fraction),"in acetic acid, 323.15 K",0.00177
same,solubility (mole fraction),"in acetic acid, 328.15 K",0.00197
same,solubility (mole fraction),"in acetic acid, 333.15 K",0.00227
same,solubility (mole fraction),"in acetonitrile, 278.15 K",0.000183
same,solubility (mole fraction),"in acetonitrile, 283.15 K",0.000225
same,solubility (mole fraction),"in acetonitrile, 288.15 K",0.000258
same,solubility (mole fraction),"in acetonitrile, 293.15 K",0.000306
same,solubility (mole fraction),"in acetonitrile, 298.15 K",0.000379
same,solubility (mole fraction),"in acetonitrile, 303.15 K",0.000453
same,solubility (mole fraction),"in acetonitrile, 308.15 K",0.000548
same,solubility (mole fraction),"in acetonitrile, 313.15 K",0.000653
same,solubility (mole fraction),"in acetonitrile, 318.15 K",0.000779
same,solubility (mole fraction),"in ethanol, 278.15 K",0.00378
same,solubility (mole fraction),"in ethanol, 288.15 K",0.00492
same,solubility (mole fraction),"in ethanol, 293.15 K",0.00579
same,solubility (mole fraction),"in ethanol, 298.15 K",0.00702
same,solubility (mole fraction),"in ethanol, 303.15 K",0.00846
same,solubility (mole fraction),"in ethanol, 308.15 K",0.00974
same,solubility (mole fraction),"in ethanol, 313.15 K",0.0114
same,solubility (mole fraction),"in ethanol, 318.15 K",0.0142
same,solubility (mole fraction),"in ethyl acetate, 278.15 K",0.000247
same,solubility (mole fraction),"in ethyl acetate, 283.15 K",0.000353
same,solubility (mole fraction),"in ethyl acetate, 288.15 K",0.000602
same,solubility (mole fraction),"in ethyl acetate, 293.15 K",0.000897
same,solubility (mole fraction),"in ethyl acetate, 298.15 K",0.00131
same,solubility (mole fraction),"in ethyl acetate, 303.15 K",0.00215
same,solubility (mole fraction),"in ethyl acetate, 308.15 K",0.00329
same,solubility (mole fraction),"in ethyl acetate, 313.15 K",0.00477
same,solubility (mole fraction),"in ethyl acetate, 318.15 K",0.00742
same,solubility (mole fraction),"in formic acid, 278.15 K",0.00285
same,solubility (mole fraction),"in formic acid, 283.15 K",0.00305
same,solubility (mole fraction),"in formic acid, 288.15 K",0.00326
same,solubility (mole fraction),"in formic acid, 293.15 K",0.00361
same,solubility (mole fraction),"in formic acid, 298.15 K",0.00408
same,solubility (mole fraction),"in formic acid, 303.15 K",0.00456
same,solubility (mole fraction),"in formic acid, 308.15 K",0.00507
same,solubility (mole fraction),"in formic acid, 313.15 K",0.00596
same,solubility (mole fraction),"in formic acid, 318.15 K",0.00694
same,solubility (mole fraction),"in isopropanol, 278.15 K",0.0038
same,solubility (mole fraction),"in isopropanol, 283.15 K",0.00417
same,solubility (mole fraction),"in isopropanol, 288.15 K",0.00485
same,solubility (mole fraction),"in isopropanol, 293.15 K",0.00555
same,solubility (mole fraction),"in isopropanol, 298.15 K",0.00638
same,solubility (mole fraction),"in isopropanol, 303.15 K",0.00735
same,solubility (mole fraction),"in isopropanol, 308.15 K",0.00896
same,solubility (mole fraction),"in isopropanol, 313.15 K",0.0106
same,solubility (mole fraction),"in isopropanol, 318.15 K",0.0125
same,solubility (mole fraction),"in methanol, 278.15 K",0.00449
same,solubility (mole fraction),"in methanol, 283.15 K",0.0048
same,solubility (mole fraction),"in methanol, 288.15 K",0.00547
same,solubility (mole fraction),"in methanol, 293.15 K",0.00676
same,solubility (mole fraction),"in methanol, 298.15 K",0.00874
same,solubility (mole fraction),"in methanol, 303.15 K",0.0118
same,solubility (mole fraction),"in methanol, 308.15 K",0.0155
same,solubility (mole fraction),"in methanol, 313.15 K",0.0209
same,solubility (mole fraction),"in methanol, 318.15 K",0.026
same,solubility (mole fraction),"in n-propanol, 278.15 K",0.00311
same,solubility (mole fraction),"in n-propanol, 283.15 K",0.00361
same,solubility (mole fraction),"in n-propanol, 288.15 K",0.00433
same,solubility (mole fraction),"in n-propanol, 293.15 K",0.00512
same,solubility (mole fraction),"in n-propanol, 298.15 K",0.00632
same,solubility (mole fraction),"in n-propanol, 303.15 K",0.00761
same,solubility (mole fraction),"in n-propanol, 308.15 K",0.00892
same,solubility (mole fraction),"in n-propanol, 313.15 K",0.0107
same,solubility (mole fraction),"in n-propanol, 318.15 K",0.0135
same,solubility (mole fraction),"in toluene, 278.15 K",0.000365
same,solubility (mole fraction),"in toluene, 283.15 K",0.000582
same,solubility (mole fraction),"in toluene, 288.15 K",0.000848
same,solubility (mole fraction),"in toluene, 293.15 K",0.00119
same,solubility (mole fraction),"in toluene, 298.15 K",0.00175
same,solubility (mole fraction),"in toluene, 303.15 K",0.00253
same,solubility (mole fraction),"in toluene, 308.15 K",0.00356
same,solubility (mole fraction),"in toluene, 313.15 K",0.00487
same,solubility (mole fraction),"in toluene, 318.15 K",0.00589
